Counter-ions that a name gives are not always drawn.
Assays:
[1] = test system: anti-OVA-specific IgG1 subclass antibody; test: Adjuvant activity test: anti-OVA-specific IgG1 subclass antibody in serum of OVA-immunized mice (ELISA); type: in vivo, BALB/c mice; conditions: after secondary immunization, serum 2 weeks later; OVA 5 μg + compound 0.256 μmol in 5% αCD-added saline (Addavax mixed with saline at 1:1), dorsal-subcutaneous; compared to OVA single administration group
[2] = test system: anti-OVA-specific IgG2a subclass antibody; test: Adjuvant activity test: anti-OVA-specific IgG2a subclass antibody in serum of OVA-immunized mice (ELISA); type: in vivo, BALB/c mice; conditions: after secondary immunization, serum 2 weeks later; OVA 5 μg + compound 0.256 μmol in 5% αCD-added saline (Addavax mixed with saline at 1:1), dorsal-subcutaneous; compared to OVA single administration group

SMILES | anti-OVA-specific IgG1 subclass antibody production [1] | anti-OVA-specific IgG2a subclass antibody production [2]
CCCCCCCCCCCCCCCCCCCCCC(=O)N[C@@H](CC(C)C)C(=O)NCCCCCCCCCCCC [SZ197, N-[(1S)-1-(dodecylcarbamoyl)-3-methyl-butyl]docosanamide] | tended to increase | tended to increase
CCCCCCCCCCCCCCCCCCCCCC(=O)N[C@@H](CC(C)C)C(=O)NCCCCCCCC [SZ198, N-[(1S)-3-methyl-1-(octylcarbamoyl)butyl]docosanamide] | tended to increase | tended to increase
CCCCCCCCCCCCCCCC(=O)N[C@@H](CC(C)C)C(=O)NCCCCCCCC [SZ199, N-[(1S)-3-methyl-1-(octylcarbamoyl)butyl]hexadecanamide] | significant enhancement | tended to increase
CCCCCCCCCCCCCCCCNC(=O)N[C@@H](CC(C)C)C(=O)NCCCCCCCC [SZ201, (2S)-2-(hexadecylcarbamoylamino)-4-methyl-N-octyl-pentanamide] | tended to increase | tended to increase
CCCCCCCCCCCCCCCCOC(=O)N[C@@H](CC(C)C)C(=O)NCCCCCCCC [SZ203, hexadecyl N-[(1S)-3-methyl-1-(octylcarbamoyl)butyl]carbamate] | tended to increase | tended to increase
CCCCCCCCCCCCCCCCCC(=O)NCC(C)(C)C(=O)NCCCCCCCCCCCC [SZ204, N-[3-(dodecylamino)-2,2-dimethyl-3-oxo-propyl]octadecanamide] | significant enhancement | tended to increase
CCCCCCCCCCCCCCCCCC(=O)N[C@@H](CCCCNC(=N)N)C(=O)NCCCCCCCCCCCC.Cl [SZ205, N-[(1S)-1-(dodecylcarbamoyl)-5-guanidino-pentyl]octadecanamide hydrochloride] | significant enhancement | significant enhancement
CCCCCCCCCCCCNC(=O)[C@H](CCCNC(=N)N)N(CCCCCCC)CCCCCCC [SZ207, (2S)-2-(diheptylamino)-N-dodecyl-5-guanidino-pentanamide dihydrochloride] | significant enhancement | significant enhancement
CCCCCCCCCCCCCCCCCCCCCC(=O)NCCc1ccncc1.Cl [SZ209, N-[2-(4-pyridyl)ethyl]docosanamide hydrochloride] | tended to increase | tended to increase
CCCCCCCCCCCCCCCCNC(=O)N[C@@H](CCCNC(=N)N)C(=O)NCCCCCCCC.Cl [SZ210, (2S)-5-guanidino-2-(hexadecylcarbamoylamino)-N-octyl-pentanamide hydrochloride] | significant enhancement | significant enhancement
CCCCCCCCCCCCCCCCCCNC(=O)N[C@@H](CCCNC(=N)N)C(=O)NCCCCCCCCCCCC.Cl [SZ211, (2S)—N-dodecyl-5-guanidino-2-(octadecylcarbamoylamino)pentanamide hydrochloride] | significant enhancement | significant enhancement
CCCCCCCCCCCCNC(=O)N[C@@H](CCCNC(=N)N)C(=O)NCCCCCCCCCCCC.Cl [SZ212, (2S)—N-dodecyl-2-(dodecylcarbamoylamino)-5-guanidino-pentanamide hydrochloride] | significant enhancement | significant enhancement
CCCCCCCCCCCCCCCCNC(=O)N[C@@H](CCCCN)C(=O)NCCCCCCCC.Cl [SZ213, (2S)-6-amino-2-(hexadecylcarbamoylamino)-N-octyl-hexanamide hydrochloride] | significant enhancement | significant enhancement
CCCCCCCCCCCCCCCCNC(=O)N[C@@H](CCCCN)C(=O)NCCCCCCCCCCCC.Cl [SZ214, (2S)-6-amino-N-dodecyl-2-(hexadecylcarbamoylamino)hexanamide hydrochloride] | significant enhancement | significant enhancement
CCCCCCCCCCCCCCCCOC(=O)N[C@@H](CCCNC(=N)N)C(=O)NCCCCCCCC.Cl [SZ215, hexadecyl N-[(1S)-4-guanidino-1-(octylcarbamoyl)butyl]carbamate hydrochloride] | a tendency toward increase | significant enhancement
